Here are results for twelve compounds from patent US10899732B2, “Substituted benzamides useful as sodium channel blockers” (GENENTECH, INC., priority 2015, dated 2021).

Where a name gives a salt, the structure may show the parent alone. Where only a bound is given, the exact number is not on record here.

Data set [1] concerns the target T1, NaV1.7 (Homo sapiens, UniProt Q15858).
T1 construct: expression vector containing the full-length cDNA coding for the desired human sodium channel α-subunit; expressed in transfected cells; host or cells: HEK-293
The data set is described as follows: Patch voltage clamp electrophysiology assay (EP), NaV1.7 in HEK-293 cells. The settings on record: HEK-293, β1 coexpressed, held at -60 mV (inactivated state). The class given is cell-based. An excerpt:
(§1) Electrophysiological Assay (EP) (In Vitro Assay)
(§2) Patch voltage clamp electrophysiology allows for the direct measurement and quantification of block of voltage-gated sodium channels (NaV's), and allows the determination of the time- and voltage-dependence of block which has been interpreted as differential binding to the resting, open, and inactivated states of the sodium channel (Hille, B., Journal of General Physiology (1977), 69: 497-515).
(§3) The following patch voltage clamp electrophysiology studies were performed on representative compounds of the invention using human embryonic kidney cells (HEK), permanently transfected with an expression vector containing the full-length cDNA coding for the desired human sodium channel α-subunit, grown in culture media containing 10% FBS, 1% PSG, and 0.5 mg/mL G418 at 37° C. with 5% CO2. […] NaV1.7 and NaV1.5 cDNAs (NM_002977 and AC137587; SCN5A, respectively) were stably expressed in HEK-293 cells. The β1 subunit was coexpressed in both the NaV1.7 and NaV1.5 cell lines.
(§4) Sodium currents were measured using the patch clamp technique in the whole-cell configuration using either a PatchXpress automated voltage clamp or manually using an Axopatch 200B (Axon Instruments) or Model 2400 (A-M systems) amplifier. The manual voltage clamp protocol was as follows: Borosilicate glass micropipettes were fire-polished to a tip diameter yielding a resistance of 2-4 Mohms in the working solutions. The pipette was filled with a solution comprised of: 5 mM NaCl, 10 mM CsCl, 120 mM CsF, 0.1 mM CaCl2, 2 mM MgCl2, 10 mM HEPES, 10 mM EGTA; and adjusted to pH 7.2 with CsOH. The external solution had the following composition: 140 mM NaCl, 5 mM KCl, 2 mM CaCl2, 1 mM MgCl2, 10 mM HEPES; and adjusted to pH 7.4 with NaOH. In some studies, the external sodium was reduced by equimolar replacement with choline. Osmolarity in the CsF internal and NaCl external solutions was adjusted to 300 mOsm/kg and 310 mOsm/kg with glucose, respectively. All recordings were performed at ambient temperature in a bath chamber with a volume of 150 μL. Control sodium currents were measured in 0.5% DMSO. Controls and representative compounds of the invention were applied to the recording chamber through a 4-pinch or 8-pinch valve bath perfusion system manufactured by ALA Scientific Instruments.
(§5) Currents were recorded at 40 kHz sampling frequency, filtered at […], and stored using a Digidata-1322A analogue/digital interface with the pClamp software (Axon Instruments). Series resistance compensation was applied (60-80%). […] All statistics in this study are given as mean±SD.
(§6) The membrane potential was maintained at a voltage where inactivation of the channel is complete (which was −60 mV for both NaV1.7 and NaV1.5). The voltage is then stepped back to a very negative (Vhold=[…]) voltage for 20 ms and then a test pulse is applied to quantify the compound block. The 20 ms brief repolarization was long enough for compound-free channels to completely recover from fast inactivation, but the compound-bound channels recovered more slowly such that negligible recovery could occur during this interval. The percent decrease in sodium current following wash-on of compound was taken as the percent block of sodium channels.

The target in data set [2] is T2, hNav1.7 (Homo sapiens, UniProt Q15858).
T2 construct: expressed in transfected cells
T2 sequence (Q15858 1-1977 isoform Q15858-3): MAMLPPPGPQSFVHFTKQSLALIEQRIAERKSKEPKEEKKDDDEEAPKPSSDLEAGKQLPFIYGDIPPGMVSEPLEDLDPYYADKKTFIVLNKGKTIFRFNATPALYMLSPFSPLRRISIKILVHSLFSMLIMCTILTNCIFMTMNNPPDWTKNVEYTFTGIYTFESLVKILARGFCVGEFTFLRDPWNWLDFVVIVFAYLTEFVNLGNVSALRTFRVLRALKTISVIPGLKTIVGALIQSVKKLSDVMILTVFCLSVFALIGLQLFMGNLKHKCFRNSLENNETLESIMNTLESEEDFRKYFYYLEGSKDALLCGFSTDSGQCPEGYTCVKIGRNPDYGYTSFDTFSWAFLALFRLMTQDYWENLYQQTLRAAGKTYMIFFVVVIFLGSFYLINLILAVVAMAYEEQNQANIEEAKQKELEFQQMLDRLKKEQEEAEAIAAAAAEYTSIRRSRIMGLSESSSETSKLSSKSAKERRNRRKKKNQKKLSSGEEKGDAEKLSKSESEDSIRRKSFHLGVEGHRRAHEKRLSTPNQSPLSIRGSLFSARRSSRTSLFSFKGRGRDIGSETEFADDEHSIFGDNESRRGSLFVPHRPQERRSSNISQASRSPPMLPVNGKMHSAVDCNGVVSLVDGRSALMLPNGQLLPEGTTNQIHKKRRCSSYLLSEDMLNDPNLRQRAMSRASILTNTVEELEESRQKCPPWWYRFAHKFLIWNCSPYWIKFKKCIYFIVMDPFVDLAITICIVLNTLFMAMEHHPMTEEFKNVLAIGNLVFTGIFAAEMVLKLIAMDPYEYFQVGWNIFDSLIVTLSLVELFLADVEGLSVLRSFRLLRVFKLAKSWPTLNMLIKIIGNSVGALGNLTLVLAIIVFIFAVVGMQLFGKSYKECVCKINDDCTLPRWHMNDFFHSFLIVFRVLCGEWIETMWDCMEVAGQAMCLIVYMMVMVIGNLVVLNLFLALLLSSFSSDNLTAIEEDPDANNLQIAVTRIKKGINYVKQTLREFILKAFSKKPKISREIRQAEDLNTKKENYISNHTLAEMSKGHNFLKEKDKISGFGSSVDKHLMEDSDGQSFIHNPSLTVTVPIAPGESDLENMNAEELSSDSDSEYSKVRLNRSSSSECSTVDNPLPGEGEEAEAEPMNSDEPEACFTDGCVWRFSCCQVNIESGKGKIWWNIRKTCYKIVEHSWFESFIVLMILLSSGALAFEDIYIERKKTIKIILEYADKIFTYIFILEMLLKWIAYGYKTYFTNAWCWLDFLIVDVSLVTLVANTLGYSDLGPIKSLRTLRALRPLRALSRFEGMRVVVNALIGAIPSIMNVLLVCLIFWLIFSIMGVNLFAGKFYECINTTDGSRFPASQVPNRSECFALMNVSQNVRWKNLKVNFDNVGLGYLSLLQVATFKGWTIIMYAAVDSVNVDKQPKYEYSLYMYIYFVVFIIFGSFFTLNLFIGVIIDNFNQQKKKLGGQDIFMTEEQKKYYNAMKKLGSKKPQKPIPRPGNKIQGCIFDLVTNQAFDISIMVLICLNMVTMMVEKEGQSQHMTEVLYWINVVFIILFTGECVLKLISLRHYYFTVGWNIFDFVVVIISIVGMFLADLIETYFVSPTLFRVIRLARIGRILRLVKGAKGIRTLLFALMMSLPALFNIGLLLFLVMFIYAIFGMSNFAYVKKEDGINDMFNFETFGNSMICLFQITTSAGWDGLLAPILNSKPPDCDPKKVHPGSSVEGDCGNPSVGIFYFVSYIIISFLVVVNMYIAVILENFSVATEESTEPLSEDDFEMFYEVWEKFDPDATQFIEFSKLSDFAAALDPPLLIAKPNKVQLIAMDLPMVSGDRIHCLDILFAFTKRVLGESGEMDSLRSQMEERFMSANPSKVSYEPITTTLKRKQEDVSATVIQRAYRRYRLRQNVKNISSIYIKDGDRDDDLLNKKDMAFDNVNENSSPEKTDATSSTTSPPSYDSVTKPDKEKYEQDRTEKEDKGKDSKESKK
T2 sequence (Q07699 19-218 partner): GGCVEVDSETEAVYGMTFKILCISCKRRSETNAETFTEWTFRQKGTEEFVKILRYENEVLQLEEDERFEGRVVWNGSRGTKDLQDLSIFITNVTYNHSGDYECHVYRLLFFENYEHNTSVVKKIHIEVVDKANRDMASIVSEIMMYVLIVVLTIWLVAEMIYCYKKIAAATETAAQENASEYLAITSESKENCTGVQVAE
The data set is described as follows: Tritiated sulfonamide competitive binding to membranes from cells expressing hNav1.7 and the β1 subunit (LBA). The following applies: competition with 100 pM [3H]compound, 18 h, room temperature; read-out: Nav1.7 (LBA). The protocol:
Tritiated Sulfonamide Binding to Membranes Isolated from Cells that Heterologously Express hNav1.7 and the β1 Subunit
Preparation of membranes containing recombinantly expressed sodium channels: Frozen recombinant cell pellets were thawed on ice and diluted to 4 times the cell pellet weight with ice cold 50 mM Tris HCl, pH 7.4 buffer. The cell suspensions were homogenized on ice using a motorized glass dounce homogenizer. Homogenates were further diluted 8.4 times with ice cold 50 mM Tris HCl, pH 7.4 buffer and then centrifuged at 200×g at 4° C. for 15 min. The supernatants were collected and centrifuged at 10000×g at 4° C. for 50 min. The pellets were then re-suspended in 100 mM NaCl, 20 mM Tris HCl, pH 7.4 buffer containing 1% v/v protease inhibitors (Calbiochem) and re-homogenized on ice. The homogenized membranes were then processed through a syringe equipped with a 26 gauge needle. Protein concentrations were determined by Bradford Assay and the membranes were stored at −80° C.
Saturation experiments. A competitive NaV1.7 inhibitor having a methyl group was tritiated. Three tritiums were incorporated in place of methyl hydrogens to generate [^3H]compound. Binding of this radioligand was preformed in 5 mL borosilicate glass test tubes at room temperature. Binding was initiated by adding membranes to increasing concentrations of [^3H]compound in 100 mM NaCl, 20 mM Tris HCl, pH 7.4 buffer containing 0.01% w/v bovine serum albumin (BSA) for 18 h. Non-specific binding was determined in the presence of 1 μM unlabelled compound. After 18 h, the reactants were filtered through GF/C glass fiber filters presoaked in 0.5% w/v polyethylene imine. Filters were washed with 15 mL ice cold 100 mM NaCl, 20 mM Tris HCl, pH 7.4 buffer containing 0.25% BSA to separate bound from free ligand. [^3H]compound bound to filters was quantified by liquid scintillation counting.
Binding reactions were performed in 96-well polypropylene plates at room temperature for 18 h. In 360 μL, membranes were incubated with 100 pM [^3H]compound and increasing concentrations of Test Compound. Non-specific binding was defined in the presence of 1 μM unlabelled compound. Reactions were transferred and filtered through 96-well glass fiber/C filter plates presoaked with 0.5% polyethylene imine. The filtered reactions were washed 5 times with 200 μL ice cold buffer containing 0.25% BSA. Bound radioactivity was determined by liquid scintillation counting.
Data Analysis: For saturation experiments, non-specific binding was subtracted from total binding to provide specific binding and these values were recalculated in terms of pmol ligand bound per mg protein. Saturation curves were constructed and dissociation constants were calculated using the single site ligand binding model: Beq=(Bmax*X)/(X+Kd), where Beq is the amount of ligand bound at equilibrium, Bmax is the maximum receptor density, Kd is the dissociation constant for the ligand, and X is the free ligand concentration. For competition studies percent inhibition was determined and IC50 values were calculated using a 4 parameter logistic model (% inhibition=(A+((B−A)/(1+((x/C)^D)))) using XLfit, where A and B are the maximal and minimum inhibition respectively, C is the IC50 concentration and D is the (Hill) slope.

In data set [3] the target is T3, NaV1.5 (Homo sapiens, UniProt Q14524).
T3 construct: expression vector containing the full-length cDNA coding for the desired human sodium channel α-subunit; expressed in transfected cells; host or cells: HEK-293
T3 sequence (Q14524 whole entry): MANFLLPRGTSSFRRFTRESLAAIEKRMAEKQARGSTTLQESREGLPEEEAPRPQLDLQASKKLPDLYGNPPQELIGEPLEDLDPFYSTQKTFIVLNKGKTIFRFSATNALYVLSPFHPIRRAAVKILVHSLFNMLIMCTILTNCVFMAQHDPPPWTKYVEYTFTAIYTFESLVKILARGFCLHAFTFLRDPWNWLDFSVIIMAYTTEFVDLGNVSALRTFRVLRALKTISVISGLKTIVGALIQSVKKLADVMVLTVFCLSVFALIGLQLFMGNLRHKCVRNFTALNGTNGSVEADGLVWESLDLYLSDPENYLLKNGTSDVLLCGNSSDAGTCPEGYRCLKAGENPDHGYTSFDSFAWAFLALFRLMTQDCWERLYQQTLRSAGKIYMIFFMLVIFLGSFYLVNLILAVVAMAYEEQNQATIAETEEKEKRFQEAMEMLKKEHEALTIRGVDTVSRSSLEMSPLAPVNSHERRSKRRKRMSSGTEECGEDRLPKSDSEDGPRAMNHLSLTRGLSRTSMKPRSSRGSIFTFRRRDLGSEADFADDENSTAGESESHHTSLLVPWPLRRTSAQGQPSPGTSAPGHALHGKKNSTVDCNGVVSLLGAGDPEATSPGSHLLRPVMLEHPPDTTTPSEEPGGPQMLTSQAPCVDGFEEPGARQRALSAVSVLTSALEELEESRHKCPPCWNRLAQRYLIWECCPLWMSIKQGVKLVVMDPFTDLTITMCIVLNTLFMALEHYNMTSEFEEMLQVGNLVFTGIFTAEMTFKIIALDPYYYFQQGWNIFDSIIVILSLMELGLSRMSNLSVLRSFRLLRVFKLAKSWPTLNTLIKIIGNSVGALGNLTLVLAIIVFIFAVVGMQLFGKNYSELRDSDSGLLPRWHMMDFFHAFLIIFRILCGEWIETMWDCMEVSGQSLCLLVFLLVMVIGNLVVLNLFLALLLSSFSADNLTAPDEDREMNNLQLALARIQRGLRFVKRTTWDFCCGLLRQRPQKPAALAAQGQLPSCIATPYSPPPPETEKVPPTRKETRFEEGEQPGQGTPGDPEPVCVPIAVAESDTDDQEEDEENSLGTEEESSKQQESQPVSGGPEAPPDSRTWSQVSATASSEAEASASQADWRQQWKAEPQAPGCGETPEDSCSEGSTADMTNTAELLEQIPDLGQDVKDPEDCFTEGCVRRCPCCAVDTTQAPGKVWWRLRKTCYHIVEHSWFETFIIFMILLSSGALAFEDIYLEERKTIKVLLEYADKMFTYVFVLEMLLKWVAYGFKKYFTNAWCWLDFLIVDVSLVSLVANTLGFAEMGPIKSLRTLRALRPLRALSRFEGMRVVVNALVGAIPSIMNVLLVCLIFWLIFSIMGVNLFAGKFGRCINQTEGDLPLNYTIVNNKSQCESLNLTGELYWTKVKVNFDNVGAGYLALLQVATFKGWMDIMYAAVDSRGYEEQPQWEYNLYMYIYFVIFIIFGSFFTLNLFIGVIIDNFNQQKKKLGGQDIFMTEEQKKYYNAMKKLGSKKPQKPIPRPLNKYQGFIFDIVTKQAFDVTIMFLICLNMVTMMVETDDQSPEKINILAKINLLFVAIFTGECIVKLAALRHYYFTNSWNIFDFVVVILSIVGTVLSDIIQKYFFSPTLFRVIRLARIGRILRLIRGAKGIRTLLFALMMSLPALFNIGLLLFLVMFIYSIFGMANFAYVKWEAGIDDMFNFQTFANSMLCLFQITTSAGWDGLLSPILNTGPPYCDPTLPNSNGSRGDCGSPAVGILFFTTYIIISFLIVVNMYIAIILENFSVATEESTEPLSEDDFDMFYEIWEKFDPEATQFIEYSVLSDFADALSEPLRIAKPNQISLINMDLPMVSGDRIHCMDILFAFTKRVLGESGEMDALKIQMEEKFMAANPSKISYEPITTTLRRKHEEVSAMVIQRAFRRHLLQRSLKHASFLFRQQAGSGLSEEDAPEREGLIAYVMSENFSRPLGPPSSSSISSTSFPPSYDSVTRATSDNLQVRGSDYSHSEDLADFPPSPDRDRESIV
The data set is described as follows: Patch voltage clamp electrophysiology assay (EP), NaV1.5 in HEK-293 cells. The class given is cell-based. The following applies: HEK-293, β1 coexpressed, held at -60 mV (inactivated state).
Text: as §1, §2, §3, §4, §5, §6

T1 sequence (Q15858 1-1977 isoform Q15858-3): as the sequence (Q15858 1-1977 isoform Q15858-3) above
T1 sequence (Q07699 19-218 partner): as the sequence (Q07699 19-218 partner) above

For `Cc1nn([C@@H]2CCN([C@H](C)c3cc(Cl)cc(Cl)c3)C2)c2cc(F)c(C(=O)NS(C)(=O)=O)cc12` [Example 16, 1-((R)-1-((R)-1-(3,5-dichlorophenyl)ethyl)pyrrolidin-3-yl)-6-fluoro-3-methyl-N-(methylsulfonyl)-1H-indazole-5-carboxamide, trifluoroacetic acid salt], the IC50 was 100 nM in data set [1], 17 nM in data set [2] and 13000 nM in data set [3].

On to `Cc1nn(C2CCN(Cc3cc(Cl)cc(Cl)c3)CC2)c2cc(F)c(C(=O)NS(=O)(=O)C3CC3)cc12` [Example 6, N-(cyclopropylsulfonyl)-1-(1-(3,5-dichlorobenzyl)piperidin-4-yl)-6-fluoro-3-methyl-1H-indazole-5-carboxamide 2,2,2-trifluoroacetate], for which the IC50 in data set [1] is 72 nM; in data set [2] it was 14 nM; in data set [3], 7000 nM.

As for `Cc1nn(C2CCCCC2)c2cc(F)c(C(=O)NS(=O)(=O)N3CCC3)cc12` [Example 37, N-(azetidin-1-ylsulfonyl)-1-cyclohexyl-6-fluoro-3-methyl-1H-indazole-5-carboxamide], the IC50 in data set [1] is 3600 nM; in data set [2], 490 nM; in data set [3] (human, pH 7.4), at least 30000 nM.

As to `Cc1nn(CC23CC4CC(CC(C4)C2)C3)c2cc(F)c(C(=O)N[S@TB2](C)(=O)=O)cc12` [Example 40, 1-(((1s,3s)-adamantan-1-yl)methyl)-6-fluoro-3-methyl-N-(methylsulfonyl)-1H-indazole-5-carboxamide], the IC50 is 1200 nM in data set [1]; 410 nM in data set [2]; at least 30000 nM in data set [3] (human, pH 7.4).

With `Cc1nn(C2CCN([C@H](C)c3cc(Cl)cc(Cl)c3)CC2)c2cc(F)c(C(=O)NS(=O)(=O)C3CC3)cc12` [Example 9, (R)-N-(cyclopropylsulfonyl)-1-(1-(1-(3,5-dichlorophenyl)ethyl)piperidin-4-yl)-6-fluoro-3-methyl-1H-indazole-5-carboxamide], the IC50 in data set [1] was found to be 46 nM; in data set [2], 6 nM; in data set [3], 8300 nM.

As for `Cc1nn([C@@H]2CCN(Cc3cc(Cl)cc(OC(F)(F)F)c3)C2)c2cc(F)c(C(=O)NS(=O)(=O)C3CC3)cc12` [Example 11, (R)-1-(1-(3-chloro-5-(trifluoromethoxy)benzyl)pyrrolidin-3-yl)-N-(cyclopropylsulfonyl)-6-fluoro-3-methyl-1H-indazole-5-carboxamide 2,2,2-trifluoroacetate], the results for the IC50 in data set [1], in data set [2] and in data set [3] were 23 nM, 13 nM and 800 nM, respectively.

In the case of `Cc1nn(C2CCN(Cc3cc(C(F)(F)F)cc(Cl)c3F)CC2)c2cc(F)c(C(=O)NS(C)(=O)=O)cc12` [Example 1, 1-(1-(3-chloro-2-fluoro-5-(trifluoromethyl)benzyl)piperidin-4-yl)-6-fluoro-3-methyl-N-(methylsulfonyl)-1H-indazole-5-carboxamide 2,2,2-trifluoroacetate], the values for the IC50 in data set [1], in data set [2] and in data set [3] were 680 nM, 34 nM and 22000 nM, respectively.

Take `Cc1nn(C2CCN(Cc3cc(OC(F)(F)F)ccc3Br)CC2)c2cc(F)c(C(=O)NS(=O)(=O)C3CC3)cc12` [Example 7, 1-(1-(2-bromo-5-(trifluoromethoxy)benzyl)piperidin-4-yl)-N-(cyclopropylsulfonyl)-6-fluoro-3-methyl-1H-indazole-5-carboxamide 2,2,2-trifluoroacetate]: the results for the IC50 in data set [1], in data set [2] and in data set [3] were 9 nM, 5 nM and 630 nM, respectively.

With `Cc1nn(C2CCN(Cc3cc(Cl)cc(OC(F)(F)F)c3)CC2)c2cc(F)c(C(=O)NS(=O)(=O)C3CC3)cc12` [Example 5, 1-(1-(3-chloro-5-(trifluoromethoxy)benzyl)piperidin-4-yl)-N-(cyclopropylsulfonyl)-6-fluoro-3-methyl-1H-indazole-5-carboxamide], the IC50 in data set [1] turned out to be 51 nM; in data set [2] it was 6 nM; in data set [3], 2400 nM.

Take `Cc1nn(-c2cnc(OCC(C)C)c(Cl)c2)c2cc(F)c(C(=O)NS(=O)(=O)N3CCC3)cc12` [Example 42, N-(azetidin-1-ylsulfonyl)-1-(5-chloro-6-isobutoxypyridin-3-yl)-6-fluoro-3-methyl-1H-indazole-5-carboxamide]: the IC50 in data set [1] was 71 nM; in data set [2], 7 nM; in data set [3] (human, pH 7.4) it was at least 30000 nM.

Turning to `Cc1nn(C2CCN(Cc3cc(Cl)cc(OC(F)(F)F)c3)CC2)c2cc(F)c(C(=O)NS(C)(=O)=O)cc12` [Example 4, 1-(1-(3-chloro-5-(trifluoromethoxy)benzyl)piperidin-4-yl)-6-fluoro-3-methyl-N-(methylsulfonyl)-1H-indazole-5-carboxamide 2,2,2-trifluoroacetate], the IC50 in data set [1] is 420 nM; in data set [2], 24 nM; in data set [3] it was 26000 nM.

Regarding `Cc1nn([C@@H]2CCN([C@@H](C)c3cc(Cl)cc(Cl)c3)C2)c2cc(F)c(C(=O)NS(C)(=O)=O)cc12` [Example 18, 1-((R)-1-((S)-1-(3,5-dichlorophenyl)ethyl)pyrrolidin-3-yl)-6-fluoro-3-methyl-N-(methylsulfonyl)-1H-indazole-5-carboxamide, trifluoroacetic acid salt], the IC50 in data set [1] was 150 nM; in data set [2], 40 nM; in data set [3], 17000 nM.
